This passage reports Kd, Km and kcat results from PMC5444383 (Biochemistry, 2016).

As a reminder, the Kd is the equilibrium constant for the complex coming apart. A lower Kd goes with tighter binding. As a reminder, the Km is the concentration of substrate that gives half-maximal velocity. A word on the kcat: it is the number of substrate molecules converted per active site and unit of time at saturation.

For data set [1], the target named is T1, ethylene-forming enzyme (EFE) (Pseudomonas savastanoi, UniProt P32021). Kind of data set: anaerobic UV-vis difference titration. The format is binding.
T1 sequence (P32021 whole entry): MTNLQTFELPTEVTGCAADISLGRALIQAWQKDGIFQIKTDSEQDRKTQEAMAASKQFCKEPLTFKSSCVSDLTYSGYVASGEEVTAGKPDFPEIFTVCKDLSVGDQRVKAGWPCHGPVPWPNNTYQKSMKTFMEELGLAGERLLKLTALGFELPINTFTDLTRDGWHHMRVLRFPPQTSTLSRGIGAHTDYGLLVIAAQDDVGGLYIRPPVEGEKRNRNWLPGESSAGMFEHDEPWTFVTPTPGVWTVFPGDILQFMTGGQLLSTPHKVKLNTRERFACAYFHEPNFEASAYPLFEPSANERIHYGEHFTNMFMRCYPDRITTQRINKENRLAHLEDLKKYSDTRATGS
The test system of data set [2] is O=C(O)CCCC(=O)C(=O)O. As to the kind of experiment: purified protein. The conditions noted are these: Fe(II) active-site Fe(II) (MLCT transition).
Data set [3] addresses T1, ethylene-forming enzyme (EFE). Kind of data set: anaerobic UV-vis difference titration. The format is binding. This is another data set of the same source.

Where two headings read alike, the source gives them in different places.

In the case of `O=C(O)CCC(=O)C(=O)O` [2OG, 2-oxoglutarate], the equilibrium dissociation constant (Kd) in data set [1] amounted to 25 ± 7 µM.
Regarding “ethylene-forming enzyme (EFE) (Pseudomonas savastanoi pv. phaseolicola)”, in data set [2], the Michaelis-Menten constant (Km) is 31 ± 4 µM and the kcat amounted to 0.00417 ± 0.000333 s⁻¹.
`N=C(N)NCCC[C@H](N)C(=O)O` [L-Arg, L-arginine] came in with a Kd in data set [3] of 34 ± 25 µM.
